Data published in publication PMC6660241 (The Journal of organic chemistry, 2019).
Where two headings read alike, the source gives them in different places.

Experiments:
SpNanC [1] = target: T1, SpNanC (Streptococcus pneumoniae, UniProt A0A0H2UQE4); experiment: biochemical; settings: for inhibition at 100 µM / inhibition at 1000 µM: read-out: Percentage inhibition, SpNanC
[2] = target: C. perfringens sialidase (CpNanI) (Clostridium perfringens, UniProt A0A0H2YQR1); experiment: biochemical
hNEU2 [3] = target: T2, hNEU2 (Homo sapiens, UniProt Q9Y3R4); experiment: Sialidase inhibition assay; type: biochemical; settings: read-out: Percentage inhibition, hNEU2
T2 sequence (Q9Y3R4 whole entry): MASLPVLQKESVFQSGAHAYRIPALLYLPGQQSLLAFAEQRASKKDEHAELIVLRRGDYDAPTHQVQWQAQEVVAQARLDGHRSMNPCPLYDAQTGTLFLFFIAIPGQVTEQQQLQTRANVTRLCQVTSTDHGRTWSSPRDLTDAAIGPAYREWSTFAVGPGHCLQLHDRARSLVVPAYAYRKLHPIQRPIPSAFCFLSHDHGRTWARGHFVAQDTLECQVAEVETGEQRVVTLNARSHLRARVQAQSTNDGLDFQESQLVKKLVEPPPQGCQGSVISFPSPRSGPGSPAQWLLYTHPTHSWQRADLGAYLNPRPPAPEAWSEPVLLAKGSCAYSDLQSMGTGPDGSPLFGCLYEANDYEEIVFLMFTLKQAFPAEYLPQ

SpNanA [4] = target: T3, SpNanA (Streptococcus pneumoniae, UniProt P62575); experiment: biochemical
T3 sequence (P62575 54-1035): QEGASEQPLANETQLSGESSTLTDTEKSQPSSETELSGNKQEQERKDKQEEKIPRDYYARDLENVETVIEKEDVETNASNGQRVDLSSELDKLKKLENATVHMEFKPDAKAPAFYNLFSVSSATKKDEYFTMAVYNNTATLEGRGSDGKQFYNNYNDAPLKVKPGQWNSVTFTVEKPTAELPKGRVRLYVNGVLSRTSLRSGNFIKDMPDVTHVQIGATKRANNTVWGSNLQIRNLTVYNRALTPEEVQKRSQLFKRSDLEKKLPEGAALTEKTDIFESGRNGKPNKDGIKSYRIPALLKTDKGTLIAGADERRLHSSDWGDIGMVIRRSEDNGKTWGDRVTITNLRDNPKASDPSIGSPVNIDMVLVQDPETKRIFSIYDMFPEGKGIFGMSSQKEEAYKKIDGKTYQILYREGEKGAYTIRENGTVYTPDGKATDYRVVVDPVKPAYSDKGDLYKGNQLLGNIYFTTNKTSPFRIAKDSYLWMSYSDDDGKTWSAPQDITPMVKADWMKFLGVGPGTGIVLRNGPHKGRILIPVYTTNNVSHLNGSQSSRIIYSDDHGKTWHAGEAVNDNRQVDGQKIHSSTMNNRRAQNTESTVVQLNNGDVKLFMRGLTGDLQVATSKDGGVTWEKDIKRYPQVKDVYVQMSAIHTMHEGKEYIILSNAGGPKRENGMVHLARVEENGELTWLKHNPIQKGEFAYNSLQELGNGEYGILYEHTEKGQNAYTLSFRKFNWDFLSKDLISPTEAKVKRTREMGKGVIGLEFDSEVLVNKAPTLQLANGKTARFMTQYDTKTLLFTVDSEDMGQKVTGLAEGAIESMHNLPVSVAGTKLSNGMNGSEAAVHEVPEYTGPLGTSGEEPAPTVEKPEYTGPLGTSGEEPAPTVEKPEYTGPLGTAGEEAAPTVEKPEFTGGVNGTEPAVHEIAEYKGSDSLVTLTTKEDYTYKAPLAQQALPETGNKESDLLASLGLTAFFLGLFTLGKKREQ

V. cholerae sialidase [5] = target: T4, V. cholerae sialidase (Vibrio cholerae serotype O1, UniProt P0C6E9); experiment: biochemical; type: biochemical
T4 sequence (P0C6E9 25-781): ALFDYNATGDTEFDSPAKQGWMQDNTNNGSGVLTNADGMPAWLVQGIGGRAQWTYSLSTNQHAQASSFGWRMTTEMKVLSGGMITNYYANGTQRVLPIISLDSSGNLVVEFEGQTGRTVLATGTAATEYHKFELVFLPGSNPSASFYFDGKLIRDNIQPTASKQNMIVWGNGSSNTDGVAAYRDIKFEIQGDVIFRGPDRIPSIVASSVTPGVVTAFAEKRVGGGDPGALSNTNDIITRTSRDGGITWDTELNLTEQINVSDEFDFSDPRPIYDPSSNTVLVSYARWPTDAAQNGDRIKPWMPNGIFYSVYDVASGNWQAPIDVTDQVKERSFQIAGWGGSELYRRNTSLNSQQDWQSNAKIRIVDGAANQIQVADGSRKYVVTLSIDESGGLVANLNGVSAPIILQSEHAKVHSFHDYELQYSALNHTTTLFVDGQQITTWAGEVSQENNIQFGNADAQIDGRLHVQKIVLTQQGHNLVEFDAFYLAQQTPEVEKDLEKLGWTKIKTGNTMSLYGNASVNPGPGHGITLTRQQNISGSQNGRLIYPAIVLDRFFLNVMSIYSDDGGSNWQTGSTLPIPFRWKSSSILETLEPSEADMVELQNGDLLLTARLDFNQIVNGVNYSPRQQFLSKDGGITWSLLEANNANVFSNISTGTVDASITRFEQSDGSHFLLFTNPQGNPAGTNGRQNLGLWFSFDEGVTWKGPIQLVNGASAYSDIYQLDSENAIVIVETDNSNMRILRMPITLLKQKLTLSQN

A. ureafaciens sialidase [6] = target: T5, A. ureafaciens sialidase (Paenarthrobacter ureafaciens, UniProt Q5W7Q2); experiment: Sialidase inhibition assay; type: biochemical, Arthrobacter ureafaciens; settings: read-out: Percentage inhibition, A. ureafaciens
PmST1 [7] = target: T6, PmST1 (Pasteurella multocida, UniProt Q15KI8); experiment: biochemical; settings: for inhibition at 100 µM / inhibition at 1000 µM: read-out: Percentage inhibition, PmST1
BiNanH2 [8] = target: T7, BiNanH2 (Bifidobacterium longum subsp. infantis, UniProt A0ACD7UU12); experiment: biochemical; type: biochemical, Bifidobacterium longum subsp. infantis ATCC15697
SpNanB = SpNanB (Streptococcus pneumoniae serotype 4, UniProt Q54727); experiment: biochemical; settings: for inhibition at 100 µM / inhibition at 1000 µM: read-out: Percentage inhibition, SpNanB
Sequence of SpNanB (Q54727 30-697): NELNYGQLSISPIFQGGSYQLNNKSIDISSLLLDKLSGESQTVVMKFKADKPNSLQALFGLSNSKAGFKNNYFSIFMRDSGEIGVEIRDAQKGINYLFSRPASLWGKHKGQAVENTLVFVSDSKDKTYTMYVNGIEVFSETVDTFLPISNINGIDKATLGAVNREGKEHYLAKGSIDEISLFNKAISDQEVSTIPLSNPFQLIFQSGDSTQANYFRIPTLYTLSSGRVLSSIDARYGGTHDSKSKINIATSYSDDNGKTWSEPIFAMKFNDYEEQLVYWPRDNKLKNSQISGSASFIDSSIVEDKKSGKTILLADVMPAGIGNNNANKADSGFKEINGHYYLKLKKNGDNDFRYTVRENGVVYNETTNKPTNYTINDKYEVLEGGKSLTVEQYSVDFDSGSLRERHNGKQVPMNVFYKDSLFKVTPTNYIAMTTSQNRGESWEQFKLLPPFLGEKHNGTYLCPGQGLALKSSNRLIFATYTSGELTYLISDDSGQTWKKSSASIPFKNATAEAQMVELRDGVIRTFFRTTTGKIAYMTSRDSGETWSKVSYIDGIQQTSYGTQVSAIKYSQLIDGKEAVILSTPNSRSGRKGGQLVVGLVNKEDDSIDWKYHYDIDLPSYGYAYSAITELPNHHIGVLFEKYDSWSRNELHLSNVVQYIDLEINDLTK

SpNanA [9] = target: T3, SpNanA; type: biochemical; settings: inhibitor:sialidase 2:1 molar ratio, 23 °C
V. cholerae sialidase [10] = target: T4, V. cholerae sialidase; type: biochemical; settings: inhibitor:sialidase 2:1 molar ratio; 23 °C
hNEU2 [11] = target: T2, hNEU2; type: biochemical; settings: inhibitor:sialidase 2:1 molar ratio; 23 °C; Figures 2E, S2E
BiNanH2 [12] = target: T7, BiNanH2; type: biochemical, Bifidobacterium longum subsp. infantis ATCC15697; settings: inhibitor:sialidase 2:1 molar ratio, 23 °C
[13] = tested on: C. perfringens sialidase CpNanI; type: biochemical, Clostridium perfringens; settings: inhibitor:sialidase 2:1 molar ratio, 23 °C; for sensitivity of CpNanI to the covalent inhibitor in the time course study: Figures 2A, S2A
PmST1 [14] = target: T6, PmST1; settings: read-out: IC50, PmST1; substrate Neu5Acα2–3GalβpNP; ref [25]; cited from earlier work
A. ureafaciens sialidase [15] = target: T5, A. ureafaciens sialidase; settings: read-out: IC50, A. ureafaciens; substrate Neu5Acα2–3GalβpNP; ref [47]; cited from earlier work
SpNanC [16] = target: T1, SpNanC; settings: read-out: IC50, SpNanC; substrate Neu5Acα2–3GalβpNP; ref [25]; cited from earlier work
[17] = read-out: Percentage inhibition, C. perfringens
[18] = read-out: Percentage inhibition, SpNanA
[19] = read-out: Percentage inhibition, V. cholerae
[20] = read-out: Percentage inhibition, BiNanH2

Sequence of C. perfringens sialidase (CpNanI) (A0A0H2YQR1 27-694 limits assumed): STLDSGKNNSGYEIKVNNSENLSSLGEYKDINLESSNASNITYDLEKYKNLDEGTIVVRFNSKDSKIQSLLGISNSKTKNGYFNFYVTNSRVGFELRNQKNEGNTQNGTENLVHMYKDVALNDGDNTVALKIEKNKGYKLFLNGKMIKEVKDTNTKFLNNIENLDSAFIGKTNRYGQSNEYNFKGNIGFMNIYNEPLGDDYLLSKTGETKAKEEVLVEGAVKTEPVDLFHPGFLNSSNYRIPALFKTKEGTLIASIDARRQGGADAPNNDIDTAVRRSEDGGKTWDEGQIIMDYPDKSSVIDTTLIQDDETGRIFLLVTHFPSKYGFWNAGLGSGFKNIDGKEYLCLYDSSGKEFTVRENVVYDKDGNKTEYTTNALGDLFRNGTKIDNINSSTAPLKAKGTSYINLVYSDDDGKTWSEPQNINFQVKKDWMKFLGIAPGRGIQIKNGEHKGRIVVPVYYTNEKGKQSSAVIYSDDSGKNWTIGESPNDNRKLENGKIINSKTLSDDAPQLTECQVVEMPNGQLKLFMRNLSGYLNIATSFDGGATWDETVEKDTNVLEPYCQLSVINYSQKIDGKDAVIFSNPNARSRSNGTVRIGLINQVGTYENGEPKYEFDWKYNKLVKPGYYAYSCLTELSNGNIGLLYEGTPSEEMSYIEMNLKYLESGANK

| SMILES | inhibition at 100 µM (SpNanC [1]) [%] | inhibition at 1000 µM (SpNanC [1]) [%] | IC50 [2] [µM] | inhibition at 100 µM [2, 17] [%] | inhibition at 100 µM (hNEU2 [3]) [%] | IC50 (SpNanA [4]) [µM] | inhibition at 100 µM (SpNanA [4]; [18]) [%] | IC50 (V. cholerae sialidase [5]) [µM] | inhibition at 100 µM (V. cholerae sialidase [5]; [19]) [%] | inhibition at 100 µM (A. ureafaciens sialidase [6]) [%] | IC50 (PmST1 [7]) [µM] | inhibition at 100 µM (PmST1 [7]) [%] | inhibition at 1000 µM (PmST1 [7]) [%] | inhibition at 100 µM (BiNanH2 [8]; [20]) [%] | IC50 (SpNanB) [µM] | inhibition at 100 µM (SpNanB) [%] | inhibition at 1000 µM (SpNanB) [%] | other results |
| --- | --- | --- | --- | --- | --- | --- | --- | --- | --- | --- | --- | --- | --- | --- | --- | --- | --- | --- |
| CC(=O)N[C@@H]1[C@@H](O)[C@@H](F)[C@](F)(C(=O)O)O[C@H]1[C@H](O)[C@H](O)CO [Compound 5, 5-Acetamido-2,3,5-trideoxy-3-fluoro-D-erythro-α-L-manno-non-2-ulopyranosylonic fluoride] | < 1 | 55.2 ± 0.4 | 0.18 | 99.9 ± 0.1 | 69.7 ± 0.4 | 0.13 | 99.9 ± 0.1 | 0.33 | 96.8 ± 1.4 | 99.9 ± 0.2 | > 1000 | < 1 | 3 ± 0.6 | 98.9 ± 0.5 | > 1000 | 12 ± 0.2 | 19 ± 0.2 |  |
| O=C(CO)N[C@@H]1[C@@H](O)[C@H](F)[C@](F)(C(=O)O)O[C@H]1[C@H](O)[C@H](O)CO [Compound 4, 5-glycolamido-2,3,5-trideoxy-3-fluoro-D-erythro-α-L-gluco-non-2-ulopyranosylonic fluoride] | < 1 | 5.5 ± 0.2 |  | 71.6 ± 1.2 | 80.4 ± 1.3 |  | 78.4 ± 0.5 | 1.6 ± 0.1 | 97.8 ± 0.1 | 96.1 ± 0.6 | > 1000 | < 1 | 22.4 ± 0.1 | 87.3 ± 0.8 | > 1000 | 25.3 ± 1.7 | 26 ± 4.9 |  |
| CC(=O)N[C@@H]1[C@@H](O)[C@@H](F)[C@](F)(C(=O)O)O[C@H]1[C@H](O)[C@H](O)CN=[N+]=[N-] [Compound 6, 5-Acetamido-9-azido-2,3,5,9-tetradeoxy-3-fluoro-D-erythro-α-L-manno-non-2-ulopyranosylonic fluoride] | < 1 | 83.7 ± 3.5 | 0.024 | 99.9 ± 0.1 | 1.5 ± 0.3 | 0.033 | 99.9 ± 0.1 | 0.18 | 99.9 ± 0.6 | 99.9 ± 0.1 | > 1000 | < 1 | 6 ± 0.4 | 98.8 ± 2.2 | > 1000 | 16.7 ± 1.6 | 43.8 ± 1.4 | time for de-activation of SpNanA (SpNanA [9]): < 10 min; sensitivity of SpNanA to the covalent inhibitor in the time course study (SpNanA [9]; Figures 2C, S2C): sensitive; time for de-activation of V. cholerae sialidase (V. cholerae sialidase [10]): < 10 min; inhibition at 1000 µM (hNEU2 [3]): 53.4 ± 1.3%; sensitivity of hNEU2 to the covalent inhibitor in the time course study (hNEU2 [11]): except for hNEU2; time for de-activation of BiNanH2 (BiNanH2 [12]): < 10 min; sensitivity of BiNanH2 to the covalent inhibitor in the time course study (BiNanH2 [12]; Figures 2D, S2D): sensitive; time for de-activation of CpNanI [13]: < 10 min; sensitivity of CpNanI to the covalent inhibitor in the time course study [13]: sensitive; IC50 for V. cholerae sialidase better than that for hNEU2 (V. cholerae sialidase [5]; selectivity V. cholerae sialidase versus hNEU2): at least 500 fold; IC50 for BiNanH2 better than that for hNEU2 (BiNanH2 [8]; selectivity BiNanH2 versus hNEU2): at least 500 fold |
| [N-]=[N+]=N[C@@H]1[C@@H](O)[C@H](F)[C@](F)(C(=O)O)O[C@H]1[C@H](O)[C@H](O)CO [Compound 3, 5-Azido-2,3,5-trideoxy-3-fluoro-D-erythro-α-L-gluco-non-2-ulopyranosylonic fluoride] | < 1 | 6.5 ± 0.8 | > 1000 | 29.8 ± 1.2 | 37.5 ± 1.2 | > 1000 | < 1 |  | 25 ± 1 | 75.2 ± 0.2 | > 1000 | < 1 | 7.8 ± 0.3 | 40.8 ± 3.4 | > 1000 | 35.1 ± 0.8 | 38 ± 0.9 | inhibition at 1000 µM [2, 17]: 30 ± 0.8%; inhibition at 1000 µM (hNEU2 [3]): 80.7 ± 1.2%; inhibition at 1000 µM (SpNanA [4]; [18]): 29.6 ± 0.9%; inhibition at 1000 µM (V. cholerae sialidase [5]; [19]): 76.6 ± 4.6%; inhibition at 1000 µM (BiNanH2 [8]; [20]): 85.6 ± 0.5% |
| CC(=O)N[C@@H]1[C@@H](O)[C@H](F)[C@](F)(C(=O)O)O[C@H]1[C@H](O)[C@H](O)CO [Compound 1, 5-Acetamido-2,3,5-trideoxy-3-fluoro-D-erythro-α-L-gluco-non-2-ulopyranosylonic fluoride] | < 1 | 25.1 ± 6.1 |  | 80.6 ± 0.7 | 75.4 ± 0.6 |  | 99.7 ± 0.3 | 2 ± 0.1 | 97.7 ± 0.3 | 99.2 ± 0.3 | > 1000 | < 1 | 4.3 ± 0.1 | 95.4 ± 0.9 | > 1000 | 11.8 ± 1 | 30.2 ± 2.2 | IC50 (SpNanC [1]; read-out: IC50, SpNanC): > 1000 µM |
| CC(=O)N[C@H]1[C@H]([C@H](O)[C@H](O)CO)OC(C(=O)O)=C[C@@H]1O [Neu5Ac2en, 2-deoxy-2,3-didehydro-N-acetylneuraminic acid] |  |  |  |  |  |  |  |  |  |  |  |  |  |  |  |  |  | IC50 (PmST1 [14]): > 1000 µM; IC50 (A. ureafaciens sialidase [15]): 8.1 ± 0.3 µM; IC50 (SpNanC [16]): > 1000 µM |
| CC(=O)N[C@@H]1[C@@H](O)[C@H](F)[C@](F)(C(=O)O)O[C@H]1[C@H](O)[C@H](O)CN=[N+]=[N-] [Compound 2, 5-Acetamido-9-azido-2,3,5,9-tetradeoxy-3-fluoro-D-erythro-α-L-gluco-non-2-ulopyranosylonic fluoride] | < 1 | 53.9 ± 0.1 | 0.73 | 99.9 ± 0.1 | 82.3 ± 2.8 | 0.21 | 85.8 ± 0.7 | 0.73 | 99.2 ± 0.5 | 99.9 ± 0.2 | > 1000 | < 1 | 9.3 ± 2.3 | 98.9 |  | 26.8 ± 0.2 | 51.9 ± 2.2 | sensitivity of CpNanI to the covalent inhibitor in the time course study [13]: also sensitive |
